Results taken from EP2966448B1, “METHOD FOR THE PREDICTION OR PROGNOSIS OF THE RESPONSE OF A HUMAN SUBJECT SUFFERING FROM CANCER TO TREATMENT WITH AN ANTAGONIST OF THE NK1 RECEPTOR” (priority 2013, dated 2014).
Where two headings read alike, the source gives them in different places.

How the values were obtained:
[1] = system: Carcinoma of the uterine cervix; test: Inhibition of primary tumor cell cultures (48 hours) vs NK1 receptor immunostaining (Example 1); assay type: cell-based; details: Homo sapiens, 1 micromolar, read-out: Percentage of inhibition of cell cultures
Glioma = test: as above; assay type: cell-based; details: Homo sapiens, 1 micromolar, read-out: Percentage of inhibition of cell cultures
Description: (§1) Cell cultures. To obtain tumor cells from human primary tumors we used the method described in De Bari et al. (De Bari et al. 2001). Briefly, small pieces of the tumors were digested into a hyaluronidase solution (Sigma-Aldrich, USA) at a concentration of 1 mg/ml during 15 minutes at 37°C, and then they were treated with 6 mg/ml of collagenase type IV (Invitrogen) during 2 hours at 37°C. Consecutively, cells were washed, and resuspended in the DMEM culture medium with high concentration of glucose (Dulbecco's Modified Eagle's Medium, Invitrogen) supplemented with 1% of antibiotics-antimycotics (Invitrogen) and with 1% of sodium pyruvate (Invitrogen), and the cells were seeded in culture slides at a concentration of 10.000 cells per square centimeter. When cells reached confluence, the adherent cells were separated using sterile trypsin at 0,5% (Invitrogen) and they were used among passages 3 and 9. For the assays shown next, tumor cells were seeded on slides at a concentration of 25.000 cells per well. A total of 6 wells containing the tumor cells were used as survival control. […] All the cultures were kept during 48 hours and later on recollected for their analysis.
(§2) Immunohistochemistry techniques. The presence of NK1 receptors was also analyzed using immunohistochemistry techniques. Briefly, a sample of each of the cultures of the cell lines used in the present invention, was centrifuged (5 minutes at 1.500 rpm) and the pellet obtained was dehydrated using increasing concentrations of ethanol and, finally, xylol. Then, said dehydrated samples were embedded in paraffin, creating a block of cells. Such paraffin blocks were cut with a microtome at 5 microns thickness, and were placed on microscope slides adequate to perform immunohistochemistry techniques. Consecutively, they were de-paraffinized by immersing them in xylol, to be finally hydrated using a solution containing decreasing concentrations of ethanol, and finally submerged them into water. […] After this, the samples were left to cool down at room temperature for 10 minutes. The endogenous peroxidase activity was blocked with 3% peroxide of hydrogen for 30 minutes at room temperature. After washing the samples with 0.05 M of Tris buffer, they were incubated with 10% non-immune pork serum at for 30 minutes at room temperature. To analyze the expression of NK1 receptors, the cellular samples were incubated in the presence of anti-NK1 antibodies (S8305, Sigma-Aldrich) diluted 1:1000, overnight at 4°C. Afterwards, the samples were washed in Tris buffer 0.05 M at room temperature. The next step was the addition of Envision System-HRP (Dako) reagents for 30 minutes at room temperature. Then, the samples were washed again in Tris buffer 0.05 M and the immunoreactivity was visualized through light microscopy with a chromogenic solution containing 3,3'-Diaminobenzidine (DAB+; Dako, USA). To differentiate the cell nuclei, they were slightly stained with hematoxylin. As negative control, it was used samples not incubated with the primary antibody anti-NK1, which was replaced by non-immune serum. All the samples were evaluated.
(§3) To value the immunostaining in each of the cases six cuts were performed to be analyzed by the immunohistochemistry technique. In each of the six cuts, it was counted cells in 20 fields (magnification 400x) using an Olympus microscope (model CX31). In each field it was counted the total number of cells and the number of cells presenting immunostaining, calculating afterwards the percentage of cells which presented immunostaining.

Endometrium carcinoma = test: Inhibition of primary tumor cell cultures vs Kras mutation (Example 2); assay type: cell-based, human; details: Homo sapiens, 100 micromolar, read-out: Percentage of inhibition of cell cultures
Description: Cell cultures. […] Briefly, small pieces of the tumors were digested into a hyaluronidase solution (Sigma-Aldrich, USA) at a concentration of 1 mg/ml during 15 minutes at 37°C, and then they were treated with 6 mg/ml of collagenase type IV (Invitrogen) during 2 hours at 37°C. Consecutively, cells were washed, and resuspended in the DMEM culture medium with high concentration of glucose (Dulbecco's Modified Eagle's Medium, Invitrogen) supplemented with 1% of antibiotics-antimycotics (Invitrogen) and with 1% of sodium pyruvate (Invitrogen), and the cells were seeded in culture slides at a concentration of 10.000 cells per square centimeter. When cells reached confluence, the adherent cells were separated using sterile trypsin at 0,5% (Invitrogen) and they were used among passages 3 and 9. For the assays shown next, tumor cells were seeded on slides at a concentration of 25.000 cells per well. A total of 6 wells containing the tumor cells were used as survival control. […] All the cultures were kept during 48 hours and later on recollected for their analysis.
(§4) In each case the presence or not of mutations in K-ras gene was determined.
(§5) To determine the existence of mutations in the K-ras gene DNA from cancer tumor cells was extracted from samples obtained from the different cancer tumor cells, using DNA extraction kits from Takara (Madison, WI, US) or Ambion (Huntingdon, Cambridgeshire, United Kingdom), following the manufacturer's instructions, and as it has been previously published (Di Fiore F, et al. 2007). Consecutively it was analyzed by sequencing the exon 2 of the KRAS gene, , by means of PCR amplification from previously extracted cancer tumor DNA, using the following sense primer (SEQ ID NO. 15): 5'-[sequence]-3' and anti-sense primer (SEQ ID NO. 16): 5'-[sequence]-3'. After the purification using the Qiagen extraction kit, the PCR products were sequenced using the Big Dye Terminator Kit V3.1 (Applied Biosystems, Foster City, CA, U.S.) and an ABI Prism 377 or 3100 DNA sequencer (Applied Biosystems). The presence of a heterozygous mutation in the KRAS gene in cancer tumor cells of the cultures was defined as the appearance of a mutant peak of a height of at least a third of the wild type. All the sequence analysis were executed at least twice in two independent PCR.
(§6) The antibody against NK1 receptor (Table 16) was used at 1/50 concentration. The percentages of inhibition are expressed in percentage of variation in relation to control ± standard deviation.

[2] = system: Thyroid carcinoma (folliculary type); test: Inhibition of primary tumor cell cultures (48 hours) vs NK1 receptor immunostaining (Example 1); assay type: cell-based; details: Homo sapiens, 1 micromolar, read-out: Percentage of inhibition of cell cultures
Description: as §1, §2, §3

[3] = system: Melanoma (Nodular Melanoma); test: Inhibition of primary tumor cell cultures vs Kras mutation (Example 2); assay type: cell-based, human; details: Homo sapiens, 100 micromolar, read-out: Percentage of inhibition of cell cultures
Description: as §1, §4, §5
The percentages of inhibition are expressed in percentage of variation in relation to control ± standard deviation.

Ewing Sarcoma = test: Inhibition of primary tumor cell cultures (48 hours) vs NK1 receptor immunostaining (Example 1); assay type: cell-based; details: Homo sapiens, 1 micromolar, read-out: Percentage of inhibition of cell cultures
Description: as §1, §2, §3

Myeloma = test: as above; assay type: cell-based; details: Homo sapiens, 1 micromolar, read-out: Percentage of inhibition of cell cultures
Description: as §1, §2, §3

Breast carcinoma = test: as above; assay type: cell-based; details: Homo sapiens, 1 micromolar, read-out: Percentage of inhibition of cell cultures
Description: as §1, §2, §3

Non Hodgkin Lymphoma B = test: as above; assay type: cell-based; details: Homo sapiens, 1 micromolar, read-out: Percentage of inhibition of cell cultures
Description: as §1, §2, §3

Renal cell carcinoma = test: as above; assay type: cell-based; details: Homo sapiens, 1 micromolar, read-out: Percentage of inhibition of cell cultures
Description: as §1, §2, §3

[4] = system: Thyroid carcinoma (papillary carcinoma); test: Inhibition of primary tumor cell cultures vs Kras mutation (Example 2); assay type: cell-based, human; details: Homo sapiens, 100 micromolar, read-out: Percentage of inhibition of cell cultures
Description: To obtain tumor cells from human primary tumors we used the method described in De Bari et al. (De Bari et al. 2001). Briefly, small pieces of the tumors were digested into a hyaluronidase solution (Sigma-Aldrich, USA) at a concentration of 1 mg/ml during 15 minutes at 37°C, and then they were treated with 6 mg/ml of collagenase type IV (Invitrogen) during 2 hours at 37°C. Consecutively, cells were washed, and resuspended in the DMEM culture medium with high concentration of glucose (Dulbecco's Modified Eagle's Medium, Invitrogen) supplemented with 1% of antibiotics-antimycotics (Invitrogen) and with 1% of sodium pyruvate (Invitrogen), and the cells were seeded in culture slides at a concentration of 10.000 cells per square centimeter. When cells reached confluence, the adherent cells were separated using sterile trypsin at 0,5% (Invitrogen) and they were used among passages 3 and 9. For the assays shown next, tumor cells were seeded on slides at a concentration of 25.000 cells per well. A total of 6 wells containing the tumor cells were used as survival control. […] All the cultures were kept during 48 hours and later on recollected for their analysis.
as §4, §5, §6

Leukemia B = test: Inhibition of primary tumor cell cultures (48 hours) vs NK1 receptor immunostaining (Example 1); assay type: cell-based; details: Homo sapiens, 1 micromolar, read-out: Percentage of inhibition of cell cultures
Description: as §1, §2, §3

[5] = NK1 receptor immunostaining Group 2 (20-80% of the cells)
[6] = NK1 receptor immunostaining Group 3 (more than 80% of the cells)
[7] = NK1 receptor immunostaining Intensity grade 1
[8] = NK1 receptor immunostaining Intensity grade 2
[9] = NK1 receptor immunostaining Intensity grade 3
[10] = NK1 receptor immunostaining Group 1 (less than 20% of the cells)
[11] = Cases with Kras non-mutated (wild type)

## CC(=O)N1CCN([C@H]2CCN(C(=O)N(C)[C@H](C)c3cc(C(F)(F)F)cc(C(F)(F)F)c3)[C@@H](c3ccc(F)cc3C)C2)CC1 [Casopitant]
[1]; [5]
  inhibition at 1 µM: 47 ± 4%
[1]; [6]
  inhibition at 1 µM: 93 ± 3%
[1]; [7]
  inhibition at 1 µM: 33 ± 3%
[1]; [8]
  inhibition at 1 µM: 53 ± 3%
[1]; [9]
  inhibition at 1 µM: 92 ± 2%
Glioma; [10]
  inhibition at 1 µM: 16 ± 3%
Glioma; [5]
  inhibition at 1 µM: 46 ± 4%
Glioma; [6]
  inhibition at 1 µM: 93 ± 5%
Glioma; [7]
  inhibition at 1 µM: 36 ± 3%
Glioma; [8]
  inhibition at 1 µM: 54 ± 5%
Glioma; [9]
  inhibition at 1 µM: 91 ± 3%
Endometrium carcinoma; Cases with Kras mutated
  inhibition at 100 µM: 28 ± 2%
Endometrium carcinoma; [11]
  inhibition at 100 µM: 94 ± 4%
[2]; [10]
  inhibition at 1 µM: 14 ± 3%
[2]; [5]
  inhibition at 1 µM: 44 ± 3%
[2]; [6]
  inhibition at 1 µM: 94 ± 4%
[2]; [7]
  inhibition at 1 µM: 34 ± 3%
[2]; [8]
  inhibition at 1 µM: 54 ± 5%
[2]; [9]
  inhibition at 1 µM: 93 ± 2%
[3]; Cases with Kras mutated
  inhibition at 100 µM: 25 ± 6%
[3]; [11]
  inhibition at 100 µM: 94 ± 6%
Ewing Sarcoma; [10]
  inhibition at 1 µM: 15 ± 2%
Ewing Sarcoma; [5]
  inhibition at 1 µM: 47 ± 5%
Ewing Sarcoma; [6]
  inhibition at 1 µM: 93 ± 5%
Ewing Sarcoma; [7]
  inhibition at 1 µM: 33 ± 4%
Ewing Sarcoma; [8]
  inhibition at 1 µM: 54 ± 3%
Ewing Sarcoma; [9]
  inhibition at 1 µM: 92 ± 4%
Myeloma; [10]
  inhibition at 1 µM: 16 ± 3%
Myeloma; [5]
  inhibition at 1 µM: 47 ± 4%
Myeloma; [6]
  inhibition at 1 µM: 94 ± 5%
Myeloma; [7]
  inhibition at 1 µM: 35 ± 3%
Myeloma; [8]
  inhibition at 1 µM: 55 ± 3%
Myeloma; [9]
  inhibition at 1 µM: 93 ± 3%
Breast carcinoma; [10]
  inhibition at 1 µM: 15 ± 3%
Breast carcinoma; [5]
  inhibition at 1 µM: 47 ± 4%
Breast carcinoma; [6]
  inhibition at 1 µM: 92 ± 3%
Breast carcinoma; [7]
  inhibition at 1 µM: 35 ± 3%
Breast carcinoma; [8]
  inhibition at 1 µM: 56 ± 6%
Breast carcinoma; [9]
  inhibition at 1 µM: 92 ± 2%
Non Hodgkin Lymphoma B; [10]
  inhibition at 1 µM: 15 ± 3%
Non Hodgkin Lymphoma B; [5]
  inhibition at 1 µM: 46 ± 5%
Non Hodgkin Lymphoma B; [6]
  inhibition at 1 µM: 94 ± 4%
Non Hodgkin Lymphoma B; [7]
  inhibition at 1 µM: 32 ± 3%
Non Hodgkin Lymphoma B; [8]
  inhibition at 1 µM: 55 ± 5%
Non Hodgkin Lymphoma B; [9]
  inhibition at 1 µM: 94 ± 4%
Renal cell carcinoma; [10]
  inhibition at 1 µM: 16 ± 4%
Renal cell carcinoma; [5]
  inhibition at 1 µM: 46 ± 3%
Renal cell carcinoma; [6]
  inhibition at 1 µM: 91 ± 5%
Renal cell carcinoma; [7]
  inhibition at 1 µM: 34 ± 2%
Renal cell carcinoma; [8]
  inhibition at 1 µM: 55 ± 5%
Renal cell carcinoma; [9]
  inhibition at 1 µM: 91 ± 4%
[4]; Cases with Kras mutated
  inhibition at 100 µM: 24 ± 5%
[4]; [11]
  inhibition at 100 µM: 94 ± 5%
Leukemia B; [10]
  inhibition at 1 µM: 17 ± 3%
Leukemia B; [5]
  inhibition at 1 µM: 46 ± 5%
Leukemia B; [6]
  inhibition at 1 µM: 94 ± 6%
Leukemia B; [7]
  inhibition at 1 µM: 36 ± 3%
Leukemia B; [8]
  inhibition at 1 µM: 52 ± 3%
Leukemia B; [9]
  inhibition at 1 µM: 92 ± 5%
